Several values for one entry are separate records, joined by “and”; a condition that tells them apart may be missing. Equal values may be shown once.
Test system: 186277-243-T-J2-PDC spheroids with HUVEC/MSC, viability
Test: Anticancer human tumor 186277-243-T-J2-PDC patient-derived colon adenocarcinoma cell line growth inhibition [CLK]
Conditions: for viability, T/C: stronger effect = lower value
How it was run: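 Patient-derived tumor cells grown as complex spheroids with HUVEC endothelial cells and mesenchymal stem cells, treated with drug combinations. Concentrations descend in half-log steps from near clinical Cmax, or from 10 microM if Cmax unknown.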

[1] = curve of first compound, second compound 0.0316 µM
[2] = curve of first compound, second compound 0.1 µM
[3] = curve of first compound, second compound 0.316 µM
[4] = curve of first compound, second compound 1 µM
[5] = curve of first compound, second compound 3.16 µM
[6] = curve of first compound, second compound 10 µM
[7] = second compound 0.0316 µM, first compound 0.0316 µM
[8] = second compound 0.0316 µM, first compound 0.1 µM
[9] = second compound 0.0316 µM, first compound 0.316 µM
[10] = second compound 0.0316 µM, first compound 1 µM
[11] = second compound 0.0316 µM, first compound 3.16 µM
[12] = second compound 0.0316 µM, first compound 10 µM
[13] = second compound 0.1 µM, first compound 0.0316 µM
[14] = second compound 0.1 µM, first compound 0.1 µM
[15] = second compound 0.1 µM, first compound 0.316 µM
[16] = second compound 0.1 µM, first compound 1 µM
[17] = second compound 0.1 µM, first compound 3.16 µM
[18] = second compound 0.1 µM, first compound 10 µM
[19] = second compound 0.316 µM, first compound 0.0316 µM
[20] = second compound 0.316 µM, first compound 0.1 µM
[21] = second compound 0.316 µM, first compound 0.316 µM
[22] = second compound 0.316 µM, first compound 1 µM
[23] = second compound 0.316 µM, first compound 3.16 µM
[24] = second compound 0.316 µM, first compound 10 µM
[25] = second compound 1 µM, first compound 0.0316 µM
[26] = second compound 1 µM, first compound 0.1 µM
[27] = second compound 1 µM, first compound 0.316 µM
[28] = second compound 1 µM, first compound 1 µM
[29] = second compound 1 µM, first compound 3.16 µM
[30] = second compound 1 µM, first compound 10 µM
[31] = second compound 3.16 µM, first compound 0.0316 µM
[32] = second compound 3.16 µM, first compound 0.1 µM
[33] = second compound 3.16 µM, first compound 0.316 µM
[34] = second compound 3.16 µM, first compound 1 µM
[35] = second compound 3.16 µM, first compound 3.16 µM
[36] = second compound 3.16 µM, first compound 10 µM
[37] = second compound 10 µM, first compound 0.0316 µM
[38] = second compound 10 µM, first compound 0.1 µM
[39] = second compound 10 µM, first compound 0.316 µM
[40] = second compound 10 µM, first compound 1 µM
[41] = second compound 10 µM, first compound 3.16 µM
[42] = second compound 10 µM, first compound 10 µM
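Also: compound exposure lasted seven days before readout.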
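For viability, T/C in this document: 100% = DMSO vehicle control wells.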

Nc1ccccc1NC(=O)c1ccc(CNC(=O)OCc2cccnc2)cc1 + CNC(=O)c1ccc(Nc2nc(OC3CCCC3)c3c(-c4ccc5nc(C)oc5c4)c[nH]c3n2)c(OC)c1
IC50 [1]: 3050 nM | IC50 [2]: 2560 nM | IC50 [3]: 1510 nM | IC50 [4]: 31.6 nM | IC50 [5]: < 31.6 nM | IC50 [6]: < 31.6 nM | viability, T/C [7]: 106% | viability, T/C [8]: 107% | viability, T/C [9]: 93.3% | viability, T/C [10]: 92.9% | viability, T/C [11]: 48% | viability, T/C [12]: 11% | viability, T/C [13]: 91.9% | viability, T/C [14]: 96.8% | viability, T/C [15]: 88% | viability, T/C [16]: 104% | viability, T/C [17]: 39.8% | viability, T/C [18]: 4.98% | viability, T/C [19]: 53.6% | viability, T/C [20]: 60.2% | viability, T/C [21]: 64.2% | viability, T/C [22]: 82.2% | viability, T/C [23]: 23% | viability, T/C [24]: 3.58% | viability, T/C [25]: 37.9% | viability, T/C [26]: 38.8% | viability, T/C [27]: 47.7% | viability, T/C [28]: 54.1% | viability, T/C [29]: 16.4% | viability, T/C [30]: 1.52% | viability, T/C [31]: 33.7% | viability, T/C [32]: 38.2% | viability, T/C [33]: 39% | viability, T/C [34]: 41.2% | viability, T/C [35]: 9.98% | viability, T/C [36]: 1.71% | viability, T/C [37]: 38.3% | viability, T/C [38]: 32.1% | viability, T/C [39]: 35.7% | viability, T/C [40]: 35.3% | viability, T/C [41]: 10.1% | viability, T/C [42]: 0.98%

COC1C=CCC(C)C(C)S(=O)(=O)NC(=O)c2ccc3c(c2)N(CC2CCC21)CC1(CCCc2cc(Cl)ccc21)CO3 (centres undefined) + CN1CCN(c2cc(C(=O)Nc3cc4cc(-c5cnn(C)c5)ccc4cn3)ccn2)CC1
IC50 [1]: 4120 nM | IC50 [2]: 1120 nM | IC50 [3]: < 31.6 nM | IC50 [4]: < 31.6 nM | IC50 [5]: < 31.6 nM | IC50 [6]: < 31.6 nM | viability, T/C [7]: 102% | viability, T/C [8]: 97.9% | viability, T/C [9]: 103% | viability, T/C [10]: 87.3% | viability, T/C [11]: 64.4% | viability, T/C [12]: 3.46% | viability, T/C [13]: 87.5% | viability, T/C [14]: 91.2% | viability, T/C [15]: 74% | viability, T/C [16]: 54.3% | viability, T/C [17]: 21.4% | viability, T/C [18]: 2.36% | viability, T/C [19]: 25.6% | viability, T/C [20]: 30.4% | viability, T/C [21]: 16.9% | viability, T/C [22]: 5.75% | viability, T/C [23]: 3.04% | viability, T/C [24]: 1.3% | viability, T/C [25]: 1.87% | viability, T/C [26]: 0.6% | viability, T/C [27]: 0.97% | viability, T/C [28]: 0.6% | viability, T/C [29]: 0.3% | viability, T/C [30]: 0.24% | viability, T/C [31]: 1.99% | viability, T/C [32]: 0.97% | viability, T/C [33]: 1.2% | viability, T/C [34]: 0.98% | viability, T/C [35]: 1.26% | viability, T/C [36]: 0.58% | viability, T/C [37]: 0.93% | viability, T/C [38]: 1.11% | viability, T/C [39]: 1.01% | viability, T/C [40]: 0.62% | viability, T/C [41]: 1.39% | viability, T/C [42]: 0.26%

Nc1ccn(C2OC(CO)C(O)C2(F)F)c(=O)n1 (centres undefined) + CNC(=O)c1ccc(Nc2nc(OC3CCCC3)c3c(-c4ccc5nc(C)oc5c4)c[nH]c3n2)c(OC)c1
IC50 [1]: < 31.6 nM | IC50 [2]: < 31.6 nM | IC50 [3]: < 31.6 nM | IC50 [4]: < 31.6 nM | IC50 [5]: < 31.6 nM | IC50 [6]: < 31.6 nM | viability, T/C [7]: 13.3% | viability, T/C [8]: 10.8% | viability, T/C [9]: 12% | viability, T/C [10]: 14.9% | viability, T/C [11]: 14.7% | viability, T/C [12]: 13.9% | viability, T/C [13]: 15.8% | viability, T/C [14]: 13.3% | viability, T/C [15]: 13.3% | viability, T/C [16]: 13.3% | viability, T/C [17]: 14.8% | viability, T/C [18]: 12.4% | viability, T/C [19]: 9.79% | viability, T/C [20]: 9.9% | viability, T/C [21]: 9.39% | viability, T/C [22]: 11.3% | viability, T/C [23]: 9.88% | viability, T/C [24]: 8.65% | viability, T/C [25]: 9.1% | viability, T/C [26]: 8.33% | viability, T/C [27]: 8.5% | viability, T/C [28]: 8.25% | viability, T/C [29]: 5.96% | viability, T/C [30]: 6.34% | viability, T/C [31]: 8.6% | viability, T/C [32]: 7.49% | viability, T/C [33]: 7.26% | viability, T/C [34]: 8.76% | viability, T/C [35]: 6.3% | viability, T/C [36]: 6.38% | viability, T/C [37]: 9.98% | viability, T/C [38]: 9.04% | viability, T/C [39]: 6.83% | viability, T/C [40]: 7.74% | viability, T/C [41]: 6.77% | viability, T/C [42]: 5.84%

NC(=O)C(=Cn1cnc(-c2cc(C(F)(F)F)cc(C(F)(F)F)c2)n1)c1cncnc1
viability, T/C (compound 0.00949 µM): 88.2% and 88.1% | viability, T/C (compound 0.03 µM): 84.5% and 87.8% | viability, T/C (compound 0.0949 µM): 113% and 107% | viability, T/C (compound 0.3 µM): 18.2% and 10.8% | viability, T/C (compound 0.949 µM): 4.07% and 5.27% | viability, T/C (compound 3 µM): 1.81% and 3.46% | IC50 (curve of compound): 186 nM and 175 nM

C=CC(=O)N1CCN(c2nc(=O)n(-c3c(C)ccnc3C(C)C)c3nc(-c4c(O)cccc4F)c(F)cc23)C(C)C1 (centres undefined)
viability, T/C (compound 0.0316 µM): 103% and 87.6% | viability, T/C (compound 0.1 µM): 91.4% and 96.3% | viability, T/C (compound 0.316 µM): 97.5% and 90.2% | viability, T/C (compound 1 µM): 80.2% and 105% | viability, T/C (compound 3.16 µM): 107% and 105% | viability, T/C (compound 10 µM): 95.2% and 98.2% | IC50 (curve of compound): > 10000 nM

CCN1CCN(Cc2ccc(Nc3ncc(F)c(-c4cc(F)c5nc(C)n(C(C)C)c5c4)n3)nc2)CC1
viability, T/C (compound 0.00316 µM): 81% and 102% | viability, T/C (compound 0.01 µM): 94.2% and 98.3% | viability, T/C (compound 0.0316 µM): 103% and 120% | viability, T/C (compound 0.1 µM): 121% and 116% | viability, T/C (compound 0.316 µM): 120% and 131% | viability, T/C (compound 1 µM): 117% and 107% | IC50 (curve of compound): > 1000 nM

CC(CO)NC(=O)c1cc(-c2ccc(Cl)cc2)nn(-c2cnn(C)c2)c1=O (centres undefined) + CN1CCN(c2cc(C(=O)Nc3cc4cc(-c5cnn(C)c5)ccc4cn3)ccn2)CC1
IC50 [1]: > 10000 nM | IC50 [2]: > 10000 nM | IC50 [3]: < 31.6 nM | IC50 [4]: < 31.6 nM | IC50 [5]: < 31.6 nM | IC50 [6]: < 31.6 nM | viability, T/C [7]: 118% | viability, T/C [8]: 111% | viability, T/C [9]: 96.7% | viability, T/C [10]: 102% | viability, T/C [11]: 106% | viability, T/C [12]: 112% | viability, T/C [13]: 106% | viability, T/C [14]: 92.2% | viability, T/C [15]: 106% | viability, T/C [16]: 103% | viability, T/C [17]: 107% | viability, T/C [18]: 97.3% | viability, T/C [19]: 25% | viability, T/C [20]: 27.6% | viability, T/C [21]: 29.6% | viability, T/C [22]: 30.5% | viability, T/C [23]: 25.2% | viability, T/C [24]: 35.1% | viability, T/C [25]: 0.55% | viability, T/C [26]: 0.96% | viability, T/C [27]: 0.66% | viability, T/C [28]: 0.35% | viability, T/C [29]: 0.36% | viability, T/C [30]: 0.38% | viability, T/C [31]: 0.96% | viability, T/C [32]: 1.12% | viability, T/C [33]: 0.88% | viability, T/C [34]: 1.2% | viability, T/C [35]: 1.15% | viability, T/C [36]: 1.66% | viability, T/C [37]: 0.72% | viability, T/C [38]: 0.76% | viability, T/C [39]: 0.63% | viability, T/C [40]: 0.88% | viability, T/C [41]: 0.8% | viability, T/C [42]: 0.63%

Source: PubChem BioAssay AID2060625 (Molecular Pharmacology Branch, DTP, NCI, 2025)
